One compound from ChEMBL document CHEMBL1140941 (J Med Chem, 2009) can be followed below.

The source made the active and inactive calls.

Series [1] has as its target Oxysterols receptor LXR-beta (Homo sapiens) (UniProt P55055). As to the kind of experiment: Agonist activity at LXRbeta expressed in african green monkey CV1 cells co-expressing LXRE up to 10 uM by luciferase reporter gene assay relative to control. The settings on record: CV-1. It is filed as functional, cell-based. For orientation: Reporter assays use an easily measured gene product as a stand-in for the process of interest.

Series [2] deals with T1, Mineralocorticoid receptor (Homo sapiens) (UniProt P08235).
T1 sequence (whole entry): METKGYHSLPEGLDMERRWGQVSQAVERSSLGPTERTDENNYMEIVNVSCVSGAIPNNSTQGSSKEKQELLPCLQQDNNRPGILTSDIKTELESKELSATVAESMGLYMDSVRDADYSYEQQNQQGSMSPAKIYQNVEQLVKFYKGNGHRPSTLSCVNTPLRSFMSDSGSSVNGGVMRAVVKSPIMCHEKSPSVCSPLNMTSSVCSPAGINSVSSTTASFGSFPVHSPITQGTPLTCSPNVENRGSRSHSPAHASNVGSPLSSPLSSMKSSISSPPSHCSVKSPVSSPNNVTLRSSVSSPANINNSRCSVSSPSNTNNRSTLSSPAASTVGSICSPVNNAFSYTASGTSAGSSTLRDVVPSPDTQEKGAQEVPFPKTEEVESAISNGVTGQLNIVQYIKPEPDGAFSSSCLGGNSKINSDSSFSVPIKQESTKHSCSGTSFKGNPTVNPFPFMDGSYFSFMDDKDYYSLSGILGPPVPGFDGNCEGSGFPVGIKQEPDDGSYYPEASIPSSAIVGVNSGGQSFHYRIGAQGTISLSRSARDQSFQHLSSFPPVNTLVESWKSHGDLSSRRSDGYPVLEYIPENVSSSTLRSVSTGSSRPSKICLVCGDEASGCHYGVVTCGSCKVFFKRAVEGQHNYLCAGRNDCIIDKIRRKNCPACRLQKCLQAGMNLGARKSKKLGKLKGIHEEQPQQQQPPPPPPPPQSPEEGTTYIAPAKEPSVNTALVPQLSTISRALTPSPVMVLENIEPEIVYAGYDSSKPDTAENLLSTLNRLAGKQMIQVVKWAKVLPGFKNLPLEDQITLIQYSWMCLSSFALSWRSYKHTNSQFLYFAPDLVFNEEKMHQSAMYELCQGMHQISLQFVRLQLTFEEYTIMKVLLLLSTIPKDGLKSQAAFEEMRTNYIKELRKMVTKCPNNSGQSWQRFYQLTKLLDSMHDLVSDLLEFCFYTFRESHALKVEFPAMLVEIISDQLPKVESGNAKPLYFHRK
As to the kind of experiment: Agonist activity at gal-MR expressed in african green monkey CV1 cells co-expressing MH100 by luciferase reporter gene assay. The settings on record: CV-1. Format: functional, cell-based.

Series [3] is described as follows: Half life in CD rat at 3 mg/kg, po. It is filed as ADME, organism-based. Particulars: in vivo. Set-up: dose 3 mg/kg, route oral.

One may read the half-life as the time needed for the level to fall by half in the phase considered.

Chain of Oxysterols receptor LXR-beta (Homo sapiens) (P55055 whole entry): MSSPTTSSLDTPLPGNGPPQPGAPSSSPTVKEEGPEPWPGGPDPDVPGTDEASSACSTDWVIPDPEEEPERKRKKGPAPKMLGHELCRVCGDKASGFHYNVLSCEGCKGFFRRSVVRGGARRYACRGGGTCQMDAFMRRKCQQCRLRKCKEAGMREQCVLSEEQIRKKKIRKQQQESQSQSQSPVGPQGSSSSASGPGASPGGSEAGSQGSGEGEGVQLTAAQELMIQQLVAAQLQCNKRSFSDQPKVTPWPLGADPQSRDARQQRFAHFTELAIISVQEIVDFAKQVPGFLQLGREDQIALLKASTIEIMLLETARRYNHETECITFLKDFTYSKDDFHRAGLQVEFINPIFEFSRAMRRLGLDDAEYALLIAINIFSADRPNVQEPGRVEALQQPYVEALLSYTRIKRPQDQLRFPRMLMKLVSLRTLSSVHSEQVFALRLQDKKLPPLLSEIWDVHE

For the compound `CC(C)OC(=O)C1=CN(C(=O)c2ccc(F)c(F)c2)CC(C)(C)c2c1[nH]c1ccccc21` [TUROFEXORATE ISOPROPYL], the result in series [1] and in series [2] was inactive. Moreover, the half-life in series [3] was 24.6 h.
